pIC50: −log10 of the molar value.
What was measured:
GCGR = GCGR (Homo sapiens, UniProt P47871); experiment: I125-glucagon binding assay (competition, GCGR membrane fractions); set-up: expressed in transfected cells; host or cells: CHO-K1; inhibition: dose or concentration left out as unconfirmed; conditions: for pIC50: competition with I125-glucagon 0.0625 nM, membrane fractions from GCGR overexpressed CHO-K1 cells
Description: I^125-Glucagon Binding Assay
The binding affinity of each compound was evaluated by a competition assay with I^125-glucagon. GCGR membrane fractions were obtained from GCGR overexpressed CHO-K1 cells as a stock of 1 mg/ml concentration. To evaluate the IC50 of compounds binding to GCGR, GCGR membrane fractions were treated with compounds with a serial dilution. The membrane fractions were diluted to 7.5 microgram per well in 70 microliter assay buffer contained 50 mM Tris pH 7.4 and 0.5% (w/v) bovine serum albumin and added into 96 wells plate. The membrane fractions were then mixed with 10 microliter diluted compounds. After 5 minutes pre-incubation, 20 microliter I^125 labeled glucagon (Perkin Elmer) was added into each well at the final concentration of 0.0625 nM. The assay mixtures were incubated at 25° C. for 30 minutes and then transferred onto the Millipore Multiscreen GF/B Plate coated with 0.5% (w/v) Polyethyleneimine. The filter plate was washed with wash buffer contained 50 mM Tris pH 7.4 for 2 times, 300 microliter each time. The residual isotope was detected by Hidex CHAMELEON V micro-beta counter and the IC50 value of each compound binding to GCGR was calculated with non-linear regression.

glucagon receptor (GCGR) = target: T1, glucagon receptor (GCGR) (Homo sapiens, UniProt P47871); experiment: Glucagon cAMP inhibition assay (Cisbio cAMP Dynamic 2 HTRF); format: cell-based; conditions: GCGR overexpressed CHO-K1 cells or human primary hepatocytes (not specified); glucagon at EC50
T1 construct: expressed in transfected cells; host or cells: CHO-K1
T1 sequence (P47871 26-477, species assumed): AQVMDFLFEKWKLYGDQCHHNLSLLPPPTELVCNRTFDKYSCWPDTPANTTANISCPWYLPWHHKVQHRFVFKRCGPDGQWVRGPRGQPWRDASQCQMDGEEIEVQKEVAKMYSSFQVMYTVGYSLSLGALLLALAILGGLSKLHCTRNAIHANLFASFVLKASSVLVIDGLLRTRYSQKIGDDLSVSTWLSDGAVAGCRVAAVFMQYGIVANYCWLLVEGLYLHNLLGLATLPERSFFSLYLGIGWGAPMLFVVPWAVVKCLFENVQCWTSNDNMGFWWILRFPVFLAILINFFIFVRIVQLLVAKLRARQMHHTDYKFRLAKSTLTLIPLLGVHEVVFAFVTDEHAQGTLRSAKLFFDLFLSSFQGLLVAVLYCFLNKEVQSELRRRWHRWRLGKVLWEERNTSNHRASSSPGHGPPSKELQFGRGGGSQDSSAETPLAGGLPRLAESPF
Description: Glucagon eAMP Inhibition Assay
Downstream secondary messenger eAMP induced by glucagon was detected by Cisbio cAMP Dynamic 2 kit. Testing compounds were each prepared as a dimethyl sulfoxide (DMSO) solution at the concentration of 10 mM. To evaluate the potency of compounds in inhibiting the cAMP production, glucagon receptor (GCGR) overexpressed CHO-K1 cells or human primary hepatocytes were treated with compounds with a serial dilution. The cells were re-suspended in Hank's Balanced Salt solution (HBSS) contained 0.1% (w/v) bovine serum albumin and 800 nM 3-isobutyl-1-methylxanthine (IBMX) and seeded into low volume, 384 wells white plate. The diluted compounds were then added into the plate for 30 minutes pre-incubation where the final DMSO concentration was 1%. The cells were stimulated with glucagon at the concentration equaled to EC50 (an indicium of the concentration of a drag that gives half-maximal response) for 30 minutes at room temperature. After incubation, lysis buffer contain cAMP antibody and fluorescence acceptor were added into each well for additional 60 minutes incubation. Results were recorded by Molecular Devices SpectraMax Paradigm with the HTRF Detection Cartridges and the IC50 value of each compound in inhibiting the cAMP production was calculated with non-linear regression based on the amount of cAMP production.

Sequence of GCGR (P47871 26-477, species assumed): as above

| pIC50 (GCGR) | pIC50 (glucagon receptor (GCGR)) | inhibition (GCGR; read-out: percentage of inhibition (number in parenthesis in IC50 binding column)) | inhibition at 30 µM (GCGR; compound at 30 μM, read-out: percentage of inhibition (number in parenthesis in IC50 binding column)) | SMILES |
| --- | --- | --- | --- | --- |
| 6.20 | 7.28 | – | – | CCOC(=O)CCNC(=O)c1ccc(N[C@@H](CC(C)C)c2ccc(-c3nc(-c4ccccc4)no3)cc2)cc1 [Compound 5-1, ethyl (S)-3-(4-((3-methyl-1-(4-(3-phenyl-1,2,4-oxadiazol-5-yl)phenyl)butyl)amino)benzamido)propanoate] |
| 6.15 | 7.58 | – | – | CCOC(=O)CCNC(=O)c1ccc(N[C@H](c2ccc(-c3nc4ccccc4o3)cc2)C(C)C)cc1 [Compound 4-5, ethyl (S)-3-(4-((1-(4-(benzo[d]oxazol-2-yl)phenyl)-2-methylpropyl)amino)benzamido)propanoate] |
| 6.13 | 7.02 | – | – | CCOC(=O)CCNC(=O)c1ccc(N[C@@H](CC(C)C)c2ccc(-c3nc4ccccc4o3)cc2)cc1 [Compound 4-17, ethyl (S)-3-(4-((1-(4-(benzo[d]oxazol-2-yl)phenyl)-3-methylbutyl)amino)benzamido)propanoate] |
| 6.10 | 6.93 | – | – | CCCCC(Nc1ccc(C(=O)NCCC(=O)OCC)cc1)c1ccc(-c2nc3ccccc3o2)cc1 (centres unmarked) [Compound 4-2, ethyl 3-(4-((1-(4-(benzo[d]oxazol-2-yl)phenyl)pentyl)amino)benzamido)propanoate] |
| 6.01 | 7.02 | – | – | CCOC(=O)CCNC(=O)c1ccc(NC(c2ccc(-c3nc4ccccc4o3)cc2)C(C)C)cc1 (centres unmarked) [Compound 4-1, ethyl 3-(4-((1-(4-(benzo[d]oxazol-2-yl)phenyl)-2-methylpropyl)amino)benzamido)propanoate] |
| < 4.52 | 7.07 | – | – | CCOC(=O)CCNC(=O)c1ccc(OC(c2ccc(-c3nc4ccccc4s3)cc2)C(C)C)cc1 (centres unmarked) [Compound 6-1, Ethyl 3-(4-(1-(4-(benzo[d]thiazol-2-yl)phenyl)-2-methylpropoxy)benzamido)propanoate] |

The remaining lines, values behind:

| SMILES | pIC50 (GCGR) | pIC50 (glucagon receptor (GCGR)) | inhibition (GCGR; read-out: percentage of inhibition (number in parenthesis in IC50 binding column)) | inhibition at 30 µM (GCGR; compound at 30 μM, read-out: percentage of inhibition (number in parenthesis in IC50 binding column)) |
| --- | --- | --- | --- | --- |
| CCOC(=O)CCNC(=O)c1ccc(N[C@@H](c2ccc(-c3nnc(-c4ccccc4)o3)cc2)C(C)C)cc1 [Compound 1-40, (R)-ethyl 3-(4-(2-methyl-1-(4-(5-phenyl-1,3,4-oxadiazol-2-yl)phenyl)propylamino)benzamido)propanoate] | < 4.52 | 6.79 | – | – |
| CC(C)CC(Nc1ccc(C(=O)NCCC(=O)O)cc1)c1ccc(-c2nnc(C(C)(C)C)o2)cc1 (centres unmarked) [Compound 1-12] | 6.34 | 5.17 | – | – |
| CC(C)C[C@@H](Nc1ccc(C(=O)NCCC(=O)O)cc1)c1ccc(-c2noc(-c3ccccc3)n2)cc1 [Compound 2-44, (R)-3-(4-((3-methyl-1-(4-(5-phenyl-1,254-oxadiazol-3-yl)phenyl)butyl)amino)benzamido)propanoic acid] | 6.70 | 6.48 | – | – |
| CCCC[C@H](Nc1ccc(C(=O)NCCC(=O)O)cc1)c1ccc(-c2noc(-c3ccccn3)n2)cc1 [Compound 2-38, (S)-3-(4-((1-(4-(5-(pyridin-2-yl)-1,2,4-oxadiazol-3-yl)phenyl)pentyl)amino)benzamido)propanoic acid] | 6.65 | 6.16 | – | – |
| CC(C)[C@H](Nc1ccc(C(=O)NCCC(=O)O)cc1)c1ccc(-c2nnc(C(F)(F)F)o2)cc1 (racemic) [Compound 1-57, (RS)-3-(4-((2-methyl-1-(4-(5-(trifluoromethyl)-1,3,4-oxadiazol-2-yl)phenyl)propyl)amino)benzamido)propanoic acid] | 5.60 | < 4.52 | – | – |
| CCOC(=O)CCNC(=O)c1ccc([C@@H](Nc2ccc(-c3nnc(-c4ccccc4)o3)cc2)C(C)C)cc1 [Compound 3-12, (S)-ethyl 3-(4-(2-methyl-1-(4-(5-phenyl-1,3,4-oxadiazol-2-yl)phenylamino)propyl)benzamido)propanoate] | < 4.52 | 6.56 | – | – |
| CC(C)CC(Nc1ccc(C(=O)NCCC(=O)O)cc1)c1ccc(-c2nnc(-c3ccc(F)cc3)o2)cc1 (centres unmarked) [Compound 1-28, 3-(4-((1-(4-(5-(4-fluorophenyl)-1,3,4-oxadiazol-2-yl)phenyl)-3-methylbutyl)amino)benzamido)propanoic acid] | 6.25 | 5.32 | – | – |
| CC(C)[C@H](Nc1ccc(C(=O)NCCC(=O)O)cc1)c1ccc(-c2noc(-c3ccccc3)n2)cc1 [Compound 2-28, (S)-3-(4-((2-methyl-1-(4-(5-phenyl-1,2,4-oxadiazol-3-yl)phenyl)propyl)amino)benzamido)propanoic acid] | 7.54 | 6.53 | – | – |
| CCC(C)[C@H](Nc1ccc(C(=O)NCCC(=O)O)cc1)c1ccc(-c2noc(C(F)(F)F)n2)cc1 (stereo partly drawn) [Compound 2-30, 3-(4-(((1S)-2-methyl-1-(4-(5-(trifluoromethyl)-1,2,4-oxadiazol-3-yl)phenyl)butyl)amino)benzamido)propanoic acid] | 6.78 | 6.26 | – | – |
| CCCCC(Nc1ccc(-c2nnc(-c3ccccc3)o2)cc1)c1ccc(C(=O)NCCC(=O)OCC)cc1 (centres unmarked) [Compound 3-3, ethyl 3-(4-(1-((4-(5-phenyl-1,3,4-oxadiazol-2-yl)phenyl)amino)pentyl)benzamido)propanoate] | 5.88 | 6.03 | – | – |
| CCOC(=O)CCNC(=O)c1ccc(N[C@H](c2ccc(-c3noc(-c4ccccc4)n3)cc2)C(C)CC)cc1 (stereo partly drawn) [Compound 2-18, ethyl 3-(4-(((1S)-2-methyl-(4-(5-phenyl-1,2,4-oxadiazol-3-yl)phenyl)butyl)amino)benzamido)propanoate] | 6.08 | 7.33 | – | – |
| CCOC(=O)CCNC(=O)c1ccc(N[C@@H](CC(C)C)c2ccc(-c3nnc(-c4ccccc4)o3)cc2)cc1 [Compound 1-59, ethyl (S)-3-(4-((3-methyl-1-(4-(5-phenyl-1,3,4-oxadiazol-2-yl)phenyl)butyl)amino)benzamido)propanoate] | < 4.52 | 7.59 | – | – |
| CCOC(=O)CCNC(=O)c1ccc(NC(c2ccc(-c3noc(-c4ccc(F)cc4)n3)cc2)C(C)C)cc1 (centres unmarked) [Compound 2-24, ethyl 3-(4-((1-(4-(5-(4-fluorophenyl)-1,2,4-oxadiazol-3-yl)phenyl)-2-methylpropyl)amino)benzamido)propanoate] | 5.57 | 6.61 | 35% | – |
| CCOC(=O)CCNC(=O)c1ccc(NC(c2ccc(-c3nnc(-c4ccccc4)o3)cc2)C(C)CC)cc1 (centres unmarked) [Compound 1-10, Ethyl 3-(4-((2-methyl-1-(4-(5-phenyl-1,3,4-oxadiazol-2-yl)phenyl)butyl)amino)benzamido)propanoate] | 5.73 | 7.60 | – | 34% |
| O=C(O)CCNC(=O)c1ccc(NC(c2ccc(-c3noc(-c4ccccc4)n3)cc2)C2CCCCC2)cc1 (centres unmarked) [Compound 2-17, 3-(4-((cyclohexyl(4-(5-phenyl-1,2,4-oxadiazol-3-yl)phenyl)methyl)amino)benzamido)propanoic acid] | 7.27 | 6.29 | – | – |
| CC(C)C[C@@H](Nc1ccc(C(=O)NCCC(=O)O)cc1)c1ccc(-c2nnc(-c3ccccc3)o2)cc1 [Compound 1-62, (R)-3-(4-((3-methyl-1-(4-(5-phenyl-1,3,4-oxadiazol-2-yl)phenyl)butyl)amino)benzamido)propanoic acid] | 6.06 | 5.69 | – | – |
| CCCC[C@H](Nc1ccc(C(=O)NCCC(=O)O)cc1)c1ccc(-c2noc(-c3ccccc3)n2)cc1 [Compound 2-34, (S)-3-(4-((1-(4-(5-phenyl-1,2,4-oxadiazol-3-yl)phenyl)pentyl)amino)benzamido)propanoic acid] | < 4.52 | – | – | – |
